{"source": "patent US20240125803A1", "about": "“NOVEL DIAGNOSTIC AND METHOD OF SCREENING THERAPEUTICS FOR FIBROTIC CONDITIONS” (BLR-Bio, LLC, priority 2022, published 2024)", "molecules": {"B1": {"name": "rhCCN3: recombinant human CCN3 (protein, UniProt P48745 32-357, looked up)", "CCN family member 3": "TQRCPPQCPGRCPATPPTCAPGVRAVLDGCSCCLVCARQRGESCSDLEPCDESSGLYCDRSADPSNQTGICTAVEGDNCVFDGVIYRSGEKFQPSCKFQCTCRDGQIGCVPRCQLDVLLPEPNCPAPRKVEVPGECCEKWICGPDEEDSLGGLTLAAYRPEATLGVEVSDSSVNCIEQTTEWTACSKSCGMGFSTRVTNRNRQCEMLKQTRLCMVRPCEQEPEQPTDKKGKKCLRTKKSLKAIHLQFKNCTSLHTYKPRFCGVCSDGRCCTPHNTKTIQAEFQCSPGQIVKKPVMVIGTCTCHTNCPKNNEAFLQELELKTTRGKM"}}, "key": {"[1]": {"system": "fibrosis-related gene expression", "experiment": "Bleomycin-induced skin fibrosis, 21 days: bulk RNAseq of skin", "assay_type": "in vivo, C57BL/6J mice", "settings": "d21, n=2", "protocol": "6-week-old C57BL/6J mice were subjected to bleomycin treatment (subcutaneous injection 0.1 U/100 μl/mouse daily) in the presence or absence of BLR200 (intraperitoneal injection 10 μg/kg every other day) for 21 days. For a reversal of fibrosis experiment, BLR200 treatment was started at d14 of bleomycin treatment and continued until d28. Fibrosis was assessed by histological, and unbiased bulk RNAseq, real-time polymerase chain reaction and spatial transcriptomic analyses.\nUnbiased cluster analysis of bulk RNAseq data was performed using the Database for Annotation, Visualization and Integrated Discovery (DAVID). Clusters relate to fibrosis with the enrichment score and #of genes greater than 1.0 and 10, respectively, were chosen. n=2."}, "[2]": {"target": "T1, CCN2 (Mus musculus, UniProt P29268)", "T1 construct": "FG-3019 treatment mitigated Ang II-induced fibrosis, as visualized by a reduction in skin thickness; host or cells: animals of the Ang II-induced dermal fibrosis model (endogenous protein)", "T1 sequence (P29268 26-348)": "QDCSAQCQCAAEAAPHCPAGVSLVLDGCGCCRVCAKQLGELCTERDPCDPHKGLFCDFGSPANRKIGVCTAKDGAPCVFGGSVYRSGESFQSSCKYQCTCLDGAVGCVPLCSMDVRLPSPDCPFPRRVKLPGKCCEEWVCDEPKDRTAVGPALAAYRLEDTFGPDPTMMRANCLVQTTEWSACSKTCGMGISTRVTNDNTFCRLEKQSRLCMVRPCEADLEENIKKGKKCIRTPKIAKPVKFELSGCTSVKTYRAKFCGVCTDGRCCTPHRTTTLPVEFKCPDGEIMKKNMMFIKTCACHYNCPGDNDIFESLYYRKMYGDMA", "settings": "Makino et al., 2017; cited from earlier work"}, "[3]": {"system": "fibrosis in diabetic nephropathy", "settings": "Riser et al., 2014; cited from earlier work"}}, "data": [{"molecule": "Bleomycin sulfate", "values": [{"measurement": "Fold Chance, ADAM10", "setting": "[1]", "result": 3.68, "unit": "Fold"}, {"measurement": "Fold Chance, ADAMTS4", "setting": "[1]", "result": 4.29, "unit": "Fold"}, {"measurement": "Fold Chance, ADAMTS9", "setting": "[1]", "result": 4.46, "unit": "Fold"}, {"measurement": "Fold Chance, ADAMTS20", "setting": "[1]", "result": 11.3, "unit": "Fold"}, {"measurement": "Fold Chance, CDH11", "setting": "[1]", "result": 11.3, "unit": "Fold"}, {"measurement": "Fold Chance, CITED2", "setting": "[1]", "result": 6.43, "unit": "Fold"}, {"measurement": "Fold Chance, ELK1", "setting": "[1]", "result": 3.69, "unit": "Fold"}, {"measurement": "Fold Chance, FN1", "setting": "[1]", "result": 5.12, "unit": "Fold"}, {"measurement": "Fold Chance, FZD6", "setting": "[1]", "result": 22.4, "unit": "Fold"}, {"measurement": "Fold Chance, ITGA6", "setting": "[1]", "result": 4.46, "unit": "Fold"}, {"measurement": "Fold Chance, ITGAE", "setting": "[1]", "result": 3.68, "unit": "Fold"}, {"measurement": "Fold Chance, PECAM1", "setting": "[1]", "result": 4.29, "unit": "Fold"}, {"measurement": "Fold Chance, SMAD3", "setting": "[1]", "result": 3.07, "unit": "Fold"}, {"measurement": "Fold Chance, TNC", "setting": "[1]", "result": 3.13, "unit": "Fold"}, {"measurement": "Fold Chance, WNT4", "setting": "[1]", "result": 3.07, "unit": "Fold"}, {"measurement": "Fold Chance, WNT7a", "setting": "[1]", "result": 5.81, "unit": "Fold"}, {"measurement": "Fold Chance, YAP1 (Yes-associated protein 1)", "setting": "[1]", "result": 8.61, "unit": "Fold"}]}, {"molecule": "FG-3019: monoclonal antibody targeting CCN2", "values": [{"measurement": "Ang II-induced fibrosis (skin thickness, collagen deposition, number of αSMA-expressing myofibroblasts)", "setting": "[2]", "result": "mitigated"}]}, {"molecule": "B1", "values": [{"measurement": "fibrosis in a mouse model of diabetic nephropathy", "setting": "[3]", "result": "block and reverse fibrosis"}]}]}
